# Columns and labels:
# HP1βT51P levels = assay: anti-HP1βT51P detection in cell extracts; assay type: cell-based
# EGFP-HP1β = assay: FRAP dynamics of EGFP-HP1β in living cells; assay type: cell-based, mouse; settings: preexposure to 75 μM TBB (FIG. 20)
# Method: MEFs were seeded in 2-well Lab-Tek chambers (Nunc) after transfection with the EGFP-HP1β construct. Before imaging, growth medium was replaced with phenol-red free L15 imaging medium. Live cell imaging and photobleaching experiments were performed using a 40× 1.2 NA water immersion lens on a Zeiss LSM 510 Meta confocal microscope (using a heating chamber to maintain the cells at […]) with the 488 nm line of an Argon laser operating at 6.1 A.
# FRAP analysis was performed by a method previously established in our lab 27. For low-bleach FRAP (see FIG. S1), selected regions of HC and EC were simultaneously bleached in a diffraction-limited spot with a pulse of 2 iterations at 100% of the […] Ar laser. Post-bleach images were acquired at a lower frequency of an image every 400 msec. Image bleach was corrected separately for EC and HC regions using a nearby unbleached cell. For high-bleach FRAP experiments, photobleaching was with 35 iterations at the same laser output, and images were collected every 290 msec. The normalized curves were plotted in GraphPad Prism, and recovery curves were fitted to a single order exponential equation Y=Ymax*(1−exp(−K*X)) to yield a recovery constant K; shown to be different among groups by the sum of squares f-test at p<0.05.
# γH2AX = γH2AX foci formation / staining in MEFs after IR; assay type: cell-based, mouse
# Method: Cell staining and immunofluorescence analyses were carried out as described previously^2. Briefly, transfected and untransfected cells were grown on coverslips and subjected to different treatments as indicated in the text prior to fixation. Cells were fixed using 4% formaldehyde for 10-15 min, followed by solubilisation and blocking with 3% BSA in 1×PBS, 0.05% Tween-20, 0.05% Triton. Imaging was performed on a Zeiss LSM510 Meta confocal microscope, using a 40× objective with fixed optical slice, laser power and detector/amplifier settings for all samples across each individual experiment to allow comparison. Quantitative analysis for HP1βT51P and γH2AX staining was performed using mean per-nucleus intensity to avoid any discrepancy in the definition or counting of foci. This was performed on identically stained and imaged samples by estimation of raw pixel intensity values for a defined number of cells, specified for each experiment, through the Zeiss LSM software, and comparison of the different groups by one-way ANOVA and Dunnet's post test. […] The plates were imaged and analyzed using a Cellomics high content screening microscope, using a 40× non-immersion objective. […] 500 cells were analysed per well, and standard errors calculated from an average of the means of 8 wells.
SMILES,HP1βT51P species detected by anti-HP1βT51P in cell extracts (HP1βT51P levels; etoposide treatment),changes in FRAP dynamics of EGFP-HP1β triggered by DNA damage (EGFP-HP1β),"HP1βT51P levels detected by anti-HP1βT51P in cell extracts (HP1βT51P levels; TBB at 75 μM for 6 hrs, with and without etoposide)","γH2AX foci formation (γH2AX; MEFs pre-exposed to 75 μM TBB, 5 min after 3 Gy IR)","pixel intensity of γH2AX staining after damage (γH2AX; TBB preexposure, n=20 per sample, p<0.01)"
COc1cc([C@@H]2c3cc4c(cc3[C@@H](O[C@@H]3O[C@@H]5CO[C@@H](C)O[C@H]5[C@H](O)[C@H]3O)[C@H]3COC(=O)[C@H]23)OCO4)cc(OC)c1O [etoposide],enhanced in a dose-dependent manner,,,,
"Brc1c(Br)c(Br)c2[nH]cnc2c1Br [TBB, 4,5,6,7-tetrabromo-benzimidazole]",,suppresses in living cells the changes in FRAP dynamics,diminishes both the background detection and etoposide-induced enhancement of HP1βT51P levels,suppresses γH2AX foci formation,reduced in a dose-dependent manner
